According to US20220160779A1, “COMPOSITION FOR PROMOTING CARTILAGE TISSUE REGENERATION” (National University Corporation Tokyo Medical and Dental …, priority 2019, published 2022):

Assays:
[1] = test system: rheumatoid arthritis-derived synovial cells (mesenchymal cells); conditions: cited from earlier work
Akt = experiment: Western blotting, phosphorylation of Akt in synovial MSCs; assay type: cell-based, human; conditions: FIG. 5F
Description: (§1) Synovial MSCs were seeded in 6 cm dishes to reach a cell count of 2×10^5, and cultured in normal growth medium for 1 day. The medium was replaced with fresh medium with reduced amount of FBS (MEM-alpha, 0.5% FBS and antibiotics) and cultured for one more day. The cells were treated with rh Activin A and/or PDGF-AA (amount 3 times the ED50) for up to 30 minutes. Then, those cells were lysed with cell lysis buffer (#9803S; Cell Signaling Technology, MA) to prepare total cell lysate.
(§2) Western blotting was performed as described in Uomizu, M. et al, J Med Dent Sci. vol. 65, pp. 73 to 82. The antibodies used were purchased from Cell Signaling Technology (phospho-p44/42 (#4370), p44/42 (#9102), phospho-Akt (#9271), and Akt (#9272)).

C57BL/6J mice = experiment: Medial meniscus anterior 1/2 resection model; assay type: in vivo, mouse
Excerpt: Twenty male C57BL/6J mice (8 weeks old, weight: about 25 g) were used for this study (5 mice in each group. ORIENTAL YEAST Co., Ltd. Tokyo, Japan). After anesthesia by isoflurane inhalation, a straight incision was made in the left anterior knee, and the anterior central side of the joint capsule was cut. The patellar tendon was then dislocated laterally to expose the anterior corner of the medial meniscus (see Hiyama K. et al, J Orthop Res., 2017, 35(9), pp. 1958 to 1965). The anterior corner of the meniscus was cut and dislocated anteriorly using forceps. The medial meniscus was cut perpendicularly at the medial collateral ligament, and the anterior portion of the medial meniscus was resected in a microscopic operation using a surgical microscope. The skin was closed in layers with non-absorbable sutures. Note that the right knee was subjected to sham surgery. In addition, the mice were kept under a 12-hour light/dark cycle with free movement, free feeding, and drinking water.
Recombinant human Activin A (42 ng/6 μL in PBS) and/or rh PDGF-AA (174 ng/6 μL in PBS) was injected intra-articularly on postoperative day 7 (see Hoshino T. et al., BMC Musculoskelet Disord., 2018, 19(1): 291). […]
Tissue samples were fixed in 4% paraformaldehyde for 3 to 4 days and subjected to decalcification in 20% ethylenediaminetetraacetic acid (EDTA) solution for 21 days. Then, they were embedded in paraffin wax. The specimens were then cut to a 5 μm thickness in the sagittal plane and stained with safranin O/Fast Green or hematoxylin/eosin (H&E) to histologically evaluate meniscus regeneration.
A modified Pauli's score system was used to histologically quantify meniscus regeneration (see Hiyama K. et al, J Orthop Res. 2017, 35(9), pp. 1958 to 1965). Histological evaluation was performed by two investigators in a blind manner.
Type I and II collagen immunostaining was performed as described in Tsuji K. et al, Cell Transplant., 2017, 26(6), pp. 1089 to 1102. That is, sections were subjected to deparaffinization with xylene (Wako Pure Chemical Industries, Tokyo, Japan), rehydrated stepwise with alcohol, and saturated with phosphate buffered saline (PBS). For type II collagen staining, the samples were pretreated with 50 mM Tris-HCl buffer (Wako Pure Chemical Industries) containing 0.4 mg/ml Proteinase K (Dako, Agilent Technologies, Santa Clara, Calif., USA) for 10 min. For type I collagen staining, no digestion with Proteinase K was performed.
Next, the cells were treated with methanol containing 0.3% hydrogen peroxide for 30 minutes to suppress the activity of endogenous peroxidase. As primary antibodies, anti-type I collagen antibody (1:200 dilution; Abcam cat. #ab34712, Cambridge, UK) or anti-type II collagen antibody (1:1000 dilution; Abcam […], Cambridge, UK) were added to the sections and incubated at 4° C. overnight. Then, the sections were rinsed with 0.1% PBS-Triton X-100 (MP Biomedicals Inc., Solon, Ohio, USA) and incubated with secondary antibodies diluted 1:200 [Biotinylated goat-derived anti-rabbit immunoglobulin G (IgG), Vector Laboratories, Burlingame, Calif., USA]. Then, the sections were rinsed, the signals were visualized with Vectastain ABC Reagent (Vector Laboratories), and diaminobenzidine staining (DAB, Vector Laboratories) was applied. In addition, the sections were contrast stained with hematoxylin (Muto Pure Chemicals, Tokyo, Japan).

[2] = test system: rat model of total articular cartilage loss; experiment: Full thickness articular cartilage defect model; assay type: in vivo; conditions: 4 weeks after the defect, FIG. 8
Description: Next, in order to verify the regeneration of damaged articular cartilage and the suppression of degenerative degeneration, a model of full thickness articular cartilage defect was prepared to examine the effects of rh Activin A administration. Specifically, a 1.4 mmφ total articular cartilage loss was prepared in the femoral intercondylar region using an airtome, and 180 ng of Activin A (rh Activin A) was injected intra-articularly 1 week later.

p44/42 MAPK (Erk1/2) = experiment: Western blotting, phosphorylation of p44/42 MAPK (Erk1/2) in synovial MSCs; assay type: cell-based, human; conditions: FIG. 5F
Description: as §1, §2

[3] = Activin A alone, MSCs serum-starved 24 hours, within 30 minutes
[4] = Activin A together with PDGF-AA

Substance: Activin A: homodimer of two inhibin βA chains; recombinant human protein purchased from R&D Systems
- proliferation of rheumatoid arthritis-derived synovial cells [1]: promotes the proliferation
- phosphorylation of Akt (Akt; [3]): not detected
- phosphorylation of Akt by PDGF (Akt; [4]): enhanced
- regenerated meniscus tissue (histology) (C57BL/6J mice; 42 ng/knee intra-articular on day 7, 10 days after resection, FIG. 7A): more uniform regenerated meniscus tissue, was induced
- staining property of safranin O (proteoglycans) (C57BL/6J mice; 10 days after resection, vs control and PDGF groups, FIG. 7A): enhanced
- regenerated meniscus tissue (histology) (C57BL/6J mice; 21 days after resection (day 14 after administration), FIG. 7B): uniform regeneration of cartilage-like tissue was observed
- expression of type II collagen (C57BL/6J mice; 21 days after resection, FIG. 7B): Uniform expression
- regenerated meniscus tissue (histology) (C57BL/6J mice; 56 days after resection (day 49 after administration), FIG. 7C): formation of bone marrow-like tissue
- regenerated meniscus tissue (histology) (C57BL/6J mice; 84 days after resection (day 77 after administration), FIG. 7D): regenerated tissue image very close to that of a normal meniscus
- meniscus regeneration process, modified Pauli's score (C57BL/6J mice; day 10, 21, 56 and 84 after meniscectomy, FIG. 7E): significantly accelerated
- vascular invasion in the regenerated region (C57BL/6J mice; intra-articular on day 7, 10 days after resection, FIG. 7A): almost completely suppressed
- osteoinduction in regenerated tissues (C57BL/6J mice; regenerated tissues administered with activin): no osteoinduction was observed
- degenerative degeneration of articular cartilage around the defect site ([2]; 180 ng intra-articular, safranin O): significantly suppressed
- chondrogenic differentiation of the formed tissue [2]: no significant promotion effect
- formation of fibrocartilage-like tissue in the articular cartilage defect site ([2]; intra-articular 1 week after defect (rh Activin A 180 ng/knee, rrPDGF-AA 900 ng/knee), vs PBS): promote the formation of fibrocartilage-like tissue
- phosphorylation of Erk1/2 (p44/42 MAPK (Erk1/2); [3]): not detected
- intracellular Erk phosphorylation (p44/42 MAPK (Erk1/2); [4]): no enhancement
